Reference: patent US8119633B2, “Substituted sulfonamide compounds” (Gruenenthal GmbH, priority 2007, dated 2012)

Columns and labels:
[1] = biological target: T1, human bradykinin receptor 1 (B1R) (Homo sapiens, UniProt P46663); test: Functional study on the bradykinin receptor 1 (B1R), human: FLIPR Ca2+ influx assay; assay type: cell-based; settings: test substance 10 μM; CHO K1 cells transfected with human B1R; Lys-Des-Arg9-bradykinin at EC80; Ca2+ influx (Fluo-4, FLIPR); read-out: B1R antagonism, human [10 μM] % inhibition
T1 construct: expressed in transfected cells; host or cells: CHO K1 cells
T1 sequence (P46663 1-353): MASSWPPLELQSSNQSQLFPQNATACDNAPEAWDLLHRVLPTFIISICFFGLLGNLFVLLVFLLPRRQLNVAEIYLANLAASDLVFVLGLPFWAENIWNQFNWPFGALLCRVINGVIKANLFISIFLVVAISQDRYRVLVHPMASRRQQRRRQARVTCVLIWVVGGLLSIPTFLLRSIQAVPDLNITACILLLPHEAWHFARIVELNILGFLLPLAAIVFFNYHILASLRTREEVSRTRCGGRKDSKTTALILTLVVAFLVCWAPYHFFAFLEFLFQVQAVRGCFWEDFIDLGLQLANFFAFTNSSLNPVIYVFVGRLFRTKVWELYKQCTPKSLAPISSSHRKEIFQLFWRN
How it was run: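 CHO K1 cells stably expressing human B1R were loaded with Fluo-4, and Ca2+ fluorescence was read on FLIPR (ex 488/em 540 nm). Compound was added first (10 μM for % activation against Lys-Des-Arg9-bradykinin ≥0.5 nM). After 10-20 min, Lys-Des-Arg9-bradykinin was added at EC80 for % inhibition; IC50 came from concentration series, n=2-3, N≥2.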

[2] = biological target: T2, bradykinin receptor 1 (B1R) of the rat (Rattus norvegicus, UniProt P97583); test: Functional study on the bradykinin receptor 1 (B1R), rat: FLIPR Ca2+ influx assay; assay type: cell-based; settings: test substance 10 μM; CHO K1 cells transfected with rat B1R; Des-Arg9-bradykinin at EC80; Ca2+ influx (Fluo-4, FLIPR); read-out: B1R antagonism, rat [10 μM] % inhibition
T2 construct: expressed in transfected cells; host or cells: CHO K1 cells
T2 sequence (P97583 1-337): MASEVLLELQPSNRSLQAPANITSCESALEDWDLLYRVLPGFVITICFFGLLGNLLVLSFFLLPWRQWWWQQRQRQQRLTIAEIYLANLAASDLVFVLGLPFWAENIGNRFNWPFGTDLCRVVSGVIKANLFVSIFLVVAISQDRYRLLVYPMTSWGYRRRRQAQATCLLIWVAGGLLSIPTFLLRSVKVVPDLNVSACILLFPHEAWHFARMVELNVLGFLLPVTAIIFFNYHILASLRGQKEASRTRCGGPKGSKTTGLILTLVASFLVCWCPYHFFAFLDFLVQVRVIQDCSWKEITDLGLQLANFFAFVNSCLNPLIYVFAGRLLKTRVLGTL
How it was run: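 CHO K1 cells stably expressing rat B1R, Fluo-4-loaded, read on FLIPR (ex 488/em 540 nm, peak fluorescence). Test substances added first (agonism vs 10 μM Des-Arg9-bradykinin), then after 10-20 min Des-Arg9-bradykinin at EC80; % inhibition and IC50 from concentration series, n=2-3, N≥2.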

human μ-opiate receptor = biological target: T3, human μ-opiate receptor (Homo sapiens, UniProt P35372); test: Affinity for the human μ-opiate receptor ([3H]-naloxone displacement, SPA); settings: test substance 1 μmol/l; inhibition of specific [3H]-naloxone binding; CHO-K1 receptor membrane preparation; read-out: μ-Opioid receptor [1 μM] % inhibition
T3 construct: purchased PerkinElmer Life Sciences, Zaventem, Belgium RB-HOM; host or cells: CHO-K1 cells (membrane preparation)
T3 sequence (P35372 whole entry): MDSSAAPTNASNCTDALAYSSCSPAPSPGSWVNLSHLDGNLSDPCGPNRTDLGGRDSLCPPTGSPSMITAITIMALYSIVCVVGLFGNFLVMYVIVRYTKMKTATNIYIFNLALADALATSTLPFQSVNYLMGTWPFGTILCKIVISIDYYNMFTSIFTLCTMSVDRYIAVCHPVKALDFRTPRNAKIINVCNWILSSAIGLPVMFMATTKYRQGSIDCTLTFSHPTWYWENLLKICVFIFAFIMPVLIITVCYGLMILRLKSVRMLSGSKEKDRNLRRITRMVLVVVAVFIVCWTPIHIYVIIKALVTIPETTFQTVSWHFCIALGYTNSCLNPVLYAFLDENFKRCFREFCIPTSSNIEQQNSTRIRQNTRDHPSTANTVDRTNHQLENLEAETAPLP
Description: Studies of the Effectiveness of the Compounds According to the Invention Method for determining the affinity for the human μ-opiate receptor
The receptor affinity for the human μ-opiate receptor is determined in a homogeneous batch on microtitre plates. To this end, serial dilutions of the substances to be tested are incubated for 90 minutes at room temperature with a receptor membrane preparation (15-40 μg of protein/250 μl of incubation batch) of CHO-K1 cells, which express the human μ-opiate receptor (RB-HOM receptor membrane preparation from PerkinElmer Life Sciences, Zaventem, Belgium), in the presence of 1 nmol/l of the radioactive ligand [^3H]-naloxone (NET719, PerkinElmer Life Sciences, Zaventem, Belgium) and 1 mg of WGA-SPA beads (wheatgerm agglutinin SPA beads from Amersham/Pharmacia, Freiburg, Germany) in a total volume of 250 μl. The incubation buffer used is 50 mmol/l of Tris-HCl supplemented with 0.06 wt. % bovine serum albumin. In order to determine non-specific binding, 100 μmol/l of naloxone is additionally added. When the ninety-minute incubation time has ended, the microtitre plates are centrifuged off for 20 minutes at 1000 g and the radioactivity is measured in a β-counter (Microbeta-Trilux, PerkinElmer Wallac, Freiburg, Germany). The percentage displacement of the radioactive ligand from its binding to the human μ-opiate receptor at a concentration of the test substances of 1 μmol/l is determined and stated as the percentage inhibition of specific binding. On the basis of the percentage displacement by different concentrations of the test substances, IC50 inhibitory concentrations, which effect 50% displacement of the radioactive ligand, are calculated. Ki values for the test substances are obtained by conversion by means of the Cheng-Prusoff equation.

CN(C)C(c1ccccc1)C1CCC(NC(=O)CCCCN(C)S(=O)(=O)c2c(Cl)cc(Cl)cc2Cl)CC1 (stereo not drawn) [Example 5, N—(4-((Dimethylamino)(phenyl)methyl)cyclohexyl)-5-(2,4,6-trichloro-N-methylphenylsulfonamido)pentanamide]
inhibition at 10 µM [1]: 101%
inhibition at 10 µM [2]: 60%
inhibition at 1 µM (human μ-opiate receptor): 89%

CN(CCCCC(=O)NC1CCC(C(c2ccccc2)N2CCCCC2)CC1)S(=O)(=O)c1c(Cl)cc(Cl)cc1Cl (stereo not drawn) [Example 6, N—(4-(Phenyl(piperidin-1-yl)methyl)cyclohexyl)-5-(2,4,6-trichloro-N-methylphenylsulfonamido)pentanamide]
inhibition at 10 µM [1]: 75.1%
inhibition at 10 µM [2]: 41%
inhibition at 1 µM (human μ-opiate receptor): 29%

CN(C)C(c1ccccc1)C1CCC(CNC(=O)CCCCN(C)S(=O)(=O)c2c(Cl)cc(Cl)cc2Cl)CC1 (stereo not drawn) [Example 7, N—((4-((Dimethylamino)(phenyl)methyl)cyclohexyl)methyl)-5-(2,4,6-trichloro-N -methylphenylsulfonamido)pentanamide]
inhibition at 10 µM [1]: 102%
inhibition at 10 µM [2]: 59%
inhibition at 1 µM (human μ-opiate receptor): 96%

CN(C)C(c1ccccc1)C1CCC(CNC(=O)CC2CCCCN2S(=O)(=O)c2cccc(C(F)(F)F)c2)CC1 (stereo not drawn) [Example 8, N—((4-((Dimethylamino)(phenyl)methyl)cyclohexyl)methyl)-2-(1-(3-(trifluoromethyl)phenylsulfonyl)piperidin-2-yl)acetamide]
inhibition at 10 µM [1]: 71.4%
inhibition at 10 µM [2]: 9%
inhibition at 1 µM (human μ-opiate receptor): 94%

O=C(CC1C(=O)Nc2ccccc2N1S(=O)(=O)c1ccc(Cl)c(Cl)c1)NC1CCC(C(c2ccccc2)N2CCOCC2)CC1 (stereo not drawn) [Example 54, 2-[1-(3,4-dichloro-benzenesulfonyl)-3-oxo-1,2,3,4-tetrahydro-quinoxalin-2-yl]-N-[4-(morpholin-4-yl-phenyl-methyl)-cyclohexyl]-acetamide]
inhibition at 10 µM [1]: 105%
inhibition at 10 µM [2]: 44%
inhibition at 1 µM (human μ-opiate receptor): 12%

O=C(CC1C(=O)NCCN1S(=O)(=O)c1ccc(Cl)cc1Cl)NCC1CCC(C(c2ccccc2)N2CCOCC2)CC1 (stereo not drawn) [Example 55, 2-[1-(2,4-dichloro-benzenesulfonyl)-3-oxo-piperazin-2-yl]-N-[4-(morpholin-4-yl-phenyl-methyl)-cyclohexylmethyl]-acetamide]
inhibition at 10 µM [1]: 103%
inhibition at 10 µM [2]: 26%
inhibition at 1 µM (human μ-opiate receptor): 24%

O=C(CC1C(=O)NCCN1S(=O)(=O)c1ccc(Cl)cc1Cl)NCC1CCC(C(CCc2ccccc2)N2CCOCC2)CC1 (stereo not drawn) [Example 56, 2-[1-(2,4-dichloro-benzenesulfonyl)-3-oxo-piperazin-2-yl]-N-[4-(1-morpholin-4-yl-3-phenyl-propyl)-cyclohexylmethyl]-acetamide]
inhibition at 10 µM [1]: 104%
inhibition at 10 µM [2]: 20%
inhibition at 1 µM (human μ-opiate receptor): 11%

O=C(CC1C(=O)NCCN1S(=O)(=O)c1ccc(Cl)cc1Cl)NCC1CCC(C(CCc2ccccc2)N2CCCC2)CC1 (stereo not drawn) [Example 57, 2-[1-(2,4-dichloro-benzenesulfonyl)-3-oxo-piperazin-2-yl]-N-[4-(3-phenyl-1-pyrrolidin-1-yl-propyl)-cyclohexylmethyl]-acetamide]
inhibition at 10 µM [1]: 104%
inhibition at 10 µM [2]: 27%
inhibition at 1 µM (human μ-opiate receptor): 25%

O=C(CC1C(=O)NCCN1S(=O)(=O)c1ccc(Cl)cc1Cl)NCC1CCC(C(c2ccccc2)N2CCCC2)CC1 (stereo not drawn) [Example 58, 2-[1-(2,4-dichloro-benzenesulfonyl)-3-oxo-piperazin-2-yl]-N-[4-(phenyl-pyrrolidin-1-yl-methyl)-cyclohexylmethyl]-acetamide]
inhibition at 10 µM [1]: 104%
inhibition at 10 µM [2]: 11%
inhibition at 1 µM (human μ-opiate receptor): 70%

O=C(CC1C(=O)NCCN1S(=O)(=O)c1ccc(Cl)cc1Cl)NC1CCC(C(CCc2ccccc2)N2CCCCC2)CC1 (stereo not drawn) [Example 59, 2-[1-(2,4-dichloro-benzenesulfonyl)-3-oxo-piperazin-2-yl]-N-[4-(3-phenyl-1-piperidin-1-yl-propyl)-cyclohexyl]-acetamide]
inhibition at 10 µM [1]: 104%
inhibition at 10 µM [2]: 27%
inhibition at 1 µM (human μ-opiate receptor): 61%

O=C(CC1C(=O)NCCN1S(=O)(=O)c1ccc(Cl)cc1Cl)NC1CCC(C(CCc2ccccc2)N2CCOCC2)CC1 (stereo not drawn) [Example 60, 2-[1-(2,4-dichloro-benzenesulfonyl)-3-oxo-piperazin-2-yl]-N-[4-(1-morpholin-4-yl-3-phenyl-propyl)-cyclohexyl]-acetamide]
inhibition at 10 µM [1]: 104%
inhibition at 10 µM [2]: 8%
inhibition at 1 µM (human μ-opiate receptor): 54%

CN1CCN(C(c2ccccc2)C2CCC(NC(=O)CC3C(=O)NCCN3S(=O)(=O)c3ccc(Cl)cc3Cl)CC2)CC1 (stereo not drawn) [Example 61, 2-[1-(2,4-dichloro-benzenesulfonyl)-3-oxo-piperazin-2-yl]-N-{4-[(4-methyl-piperazin-1-yl)-phenyl-methyl]-cyclohexyl}-acetamide]
inhibition at 10 µM [1]: 104%
inhibition at 10 µM [2]: 39%
inhibition at 1 µM (human μ-opiate receptor): 34%

O=C1NCCN(S(=O)(=O)c2ccc(Cl)cc2Cl)C1CC(=O)N1CCCCC1C(Cc1ccccc1)N1CCOCC1 (stereo not drawn) [Example 63, 4-(2,4-dichlorophenylsulfonyl)-3-(2-(2-(1-morpholino-2-phenylethyl)piperidin-1-yl)-2-oxoethyl)piperazin-2-one]
inhibition at 10 µM [1]: 28.6%
inhibition at 10 µM [2]: -3%
inhibition at 1 µM (human μ-opiate receptor): 47%

O=C(CC1C(=O)Nc2ccccc2N1S(=O)(=O)c1ccc(Cl)c(Cl)c1)NCC1CCC(C(c2ccccc2)N2CCOCC2)CC1 (stereo not drawn) [Example 64, 2-[1-(3,4-dichloro-benzenesulfonyl)-3-oxo-1,2,3,4-tetrahydro-quinoxalin-2-yl]-N-[4-(morpholin-4-yl-phenyl-methyl)-cyclohexylmethyl]-acetamide]
inhibition at 10 µM [1]: 104%
inhibition at 10 µM [2]: 29%
inhibition at 1 µM (human μ-opiate receptor): 10%

O=C(CC1C(=O)Nc2ccccc2N1S(=O)(=O)c1ccc(Cl)c(Cl)c1)NCC1CCC(C(CCc2ccccc2)N2CCOCC2)CC1 (stereo not drawn) [Example 65, 2-[1-(3,4-dichloro-benzenesulfonyl)-3-oxo-1,2,3,4-tetrahydro-quinoxalin-2-yl]-N-[4-(1-morpholin-4-yl-3-phenyl-propyl)-cyclohexylmethyl]-acetamide]
inhibition at 10 µM [1]: 103%
inhibition at 10 µM [2]: 24%
inhibition at 1 µM (human μ-opiate receptor): 9%

O=C(CC1C(=O)Nc2ccccc2N1S(=O)(=O)c1ccc(Cl)c(Cl)c1)NCC1CCC(C(CCc2ccccc2)N2CCCC2)CC1 (stereo not drawn) [Example 66, 2-[1-(3,4-dichloro-benzenesulfonyl)-3-oxo-1,2,3,4-tetrahydro-quinoxalin-2-yl]-N-[4-(3-phenyl-1-pyrrolidin-1-yl-propyl)-cyclohexylmethyl]-acetamide]
inhibition at 10 µM [1]: 102%
inhibition at 10 µM [2]: 96%
inhibition at 1 µM (human μ-opiate receptor): 11%
